# Measurements reported in US8906929B2, “Inhibitors of human immunodeficiency virus replication” (priority 2012, dated 2014).
# Like-named read-outs stand apart in the source and are kept apart here.
# Experiments:
# [1] = rcm bond, DCE
# [2] = rcm bond, Hoveyda-Grubbs II, DCE
# [3] = test system: recombinant NL-Rluc virus; experiment: Inhibition of HIV replication (NL-RLuc virus in MT-2 cells, luciferase readout); assay type: cell-based; conditions: 5 days of incubation, 10% FBS
# [4] = Human immunodeficiency virus 1, MT2, 120 h
molecule,measurement,setting,value
COC(=O)[C@@H](OC(C)(C)C)c1c(C)nc2cc3nn2c1-c1cc(F)c2c(c1)N(CC=CCCc1ccccc1-c1cccc-3c1)CCO2,"ring closure, isolated yield","[1]; from C=CCCc1ccccc1-c1cccc(-c2cc3nc(C)c([C@H](OC(C)(C)C)C(=O)OC)c(-c4cc(F)c5c(c4)N(CC=C)CCO5)n3n2)c1, 18-membered ring, Hoveyda-Grubbs II, 8.3 mM, 70.0 °C, 18.0 h",54.5%
COC(=O)[C@@H](OC(C)(C)C)c1c(C)nc2cc3nn2c1-c1ccc2c(c1)C(CC=CCOc1ccccc1-c1cccc-3c1)CCO2 (stereo partly drawn),"ring closure, isolated yield","[1]; from C=CCOc1ccccc1-c1cccc(-c2cc3nc(C)c([C@H](OC(C)(C)C)C(=O)OC)c(-c4ccc5c(c4)C(CC=C)CCO5)n3n2)c1, 18-membered ring, Hoveyda-Grubbs II, 2.06 mM, 70.0 °C, 3.0 h",84%
COC(=O)[C@@H](OC(C)(C)C)c1c(C)nc2cc3nn2c1-c1ccc2c(c1Cl)N(CC=CCCCOc1ccccc1-c1cccc-3c1)CCO2,"ring closure, isolated yield","[1]; from C=CCCCOc1ccccc1-c1cccc(-c2cc3nc(C)c([C@H](OC(C)(C)C)C(=O)OC)c(-c4ccc5c(c4Cl)N(CC=C)CCO5)n3n2)c1, 20-membered ring, Hoveyda-Grubbs II, 27.0 mM, 50.0 °C, 3.0 h",53.4%
COC(=O)[C@@H](OC(C)(C)C)c1c(C)nc2cc3nn2c1-c1ccc2c(c1Cl)N(CC=CCCc1ccccc1-c1cccc-3c1)CCO2,"ring closure, isolated yield","[1]; from C=CCCc1ccccc1-c1cccc(-c2cc3nc(C)c([C@H](OC(C)(C)C)C(=O)OC)c(-c4ccc5c(c4Cl)N(CC=C)CCO5)n3n2)c1, 18-membered ring, Hoveyda-Grubbs II, 70.0 °C, 4.0 h",73%
same,"ring closure, yield after HPLC","[2]; from C=CCCc1ccccc1-c1cccc(-c2cc3nc(C)c([C@H](OC(C)(C)C)C(=O)OC)c(-c4ccc5c(c4Cl)N(CC=C)CCO5)n3n2)c1, 18-membered ring, 28.0 mM, 50.0 °C, 1.0 h",26.5%
COC(=O)[C@@H](OC(C)(C)C)c1c(C)nc2cc3nn2c1-c1ccc2c(c1Cl)N(CC=CCOc1cccc(c1)-c1cccc-3c1)CCO2,"ring closure, yield after HPLC","[2]; from C=CCOc1cccc(-c2cccc(-c3cc4nc(C)c([C@H](OC(C)(C)C)C(=O)OC)c(-c5ccc6c(c5Cl)N(CC=C)CCO6)n4n3)c2)c1, 19-membered ring, then NaOH, 29.0 mM, 50.0 °C, 5.0 h, 2 steps",26.6%
COC(=O)[C@@H](OC(C)(C)C)c1c(C)nc2cc3nn2c1N1CCC(C)(CC1)COCC=CCCc1ccccc1-c1cccc-3c1,"ring closure, isolated yield","[1]; from C=CCCc1ccccc1-c1cccc(-c2cc3nc(C)c([C@H](OC(C)(C)C)C(=O)OC)c(N4CCC(C)(COCC=C)CC4)n3n2)c1, 20-membered ring, Hoveyda-Grubbs II (10 mol%), 1.23 mM, 70.0 °C, 3.0 h",98%
COC(=O)[C@@H](OC(C)(C)C)c1c(C)nc2cc3nn2c1N1CCC(C)(CC1)OCC=CC(C)Oc1ccccc1-c1cccc-3c1 (stereo partly drawn),"ring closure, yield after HPLC","[2]; from C=CCOC1(C)CCN(c2c([C@H](OC(C)(C)C)C(=O)OC)c(C)nc3cc(-c4cccc(-c5ccccc5OC(C)C=C)c4)nn23)CC1, 19-membered ring, 1.28 mM, 2.0 h",98%
COC(=O)[C@@H](OC(C)(C)C)c1c(C)nc2cc3nn2c1N1CCC(C)(CC1)OCC=CC[C@@H](C)Oc1ccccc1-c1cccc-3c1,"ring closure, isolated yield","[1]; from C=CCOC1(C)CCN(c2c([C@H](OC(C)(C)C)C(=O)OC)c(C)nc3cc(-c4cccc(-c5ccccc5O[C@H](C)CC=C)c4)nn23)CC1, 20-membered ring, Hoveyda-Grubbs II, 1.43 mM, 2.0 h",100%
COC(=O)[C@@H](OC(C)(C)C)c1c(C)nc2cc3nn2c1N1CCC(C)(CC1)OCC=CC[C@H](C)Oc1ccc(F)cc1-c1cccc-3c1,"ring closure, isolated yield","[1]; from C=CCOC1(C)CCN(c2c([C@H](OC(C)(C)C)C(=O)OC)c(C)nc3cc(-c4cccc(-c5cc(F)ccc5O[C@@H](C)CC=C)c4)nn23)CC1, 20-membered ring, Hoveyda-Grubbs II (20 mol%), then NaBH4/MeOH, 5.0 mM, 80.0 °C, 1.5 h, 2 steps",38%
COC(=O)[C@@H](OC(C)(C)C)c1c(C)nc2cc3nn2c1N1CCC(C)(CC1)OCC=CC[C@H](C)Oc1ccccc1-c1cccc-3c1,"ring closure, isolated yield","[1]; from C=CCOC1(C)CCN(c2c([C@H](OC(C)(C)C)C(=O)OC)c(C)nc3cc(-c4cccc(-c5ccccc5O[C@@H](C)CC=C)c4)nn23)CC1, 20-membered ring, Hoveyda-Grubbs II, 1.5 mM, 2.0 h",70%
"Cc1cc2c(cc1Cl)-c1cccc(c1)-c1cc3nc(C)c([C@H](OC(C)(C)C)C(=O)O)c(n3n1)N1CCC(C)(CC1)OCCCC[C@@H](C)O2 [Example 90, (2S)-2-(tert-Butoxy)-2-[(22R)-17-chloro-4,18,22,28-tetramethyl-21,27-dioxa-1,5,7,8-tetraazahexacyclo[26.2.2.1^6,^9.1^10,^14.0^2,^7.0^15,^20]tetratriaconta-2,4, 6(34), 8, 10(33), 11, 13, 15 (20),16,18-decaen-3-yl]acetic acid]",EC50,[3]; [4],157 nM
"Cc1cc2c(cc1F)-c1cccc(c1)-c1cc3nc(C)c([C@H](OC(C)(C)C)C(=O)O)c(n3n1)N1CCC(C)(CC1)OCCCC[C@H](C)O2 [Example 91, (2S)-2-(tert-Butoxy)-2-[(22S)-17-fluoro-4,18,22,28-tetramethyl-21,27-dioxa-1,5,7,8-tetraazahexacyclo[26.2.2.1^6,^9.1^10,^14.0^2,^7.0^15,^20]tetratriaconta-2,4,6(34),8,10(33), 11, 13, 15(20),16,18-decaen-3-yl]acetic acid]",EC50,[3]; [4],47 nM
"CCC(C)(C)O[C@H](C(=O)O)c1c(C)nc2cc3nn2c1N1CCC(C)(CC1)OCCCC[C@H](C)Oc1ccc(C)cc1-c1cccc-3c1 [Example 96, (2S)-2-[(2-Methylbutan-2-yl)oxy]-2-[(22S)-4,17,22,28-tetramethyl-21,27-dioxa-1,5,7,8-tetraazahexacyclo[26.2.2.1^6,^9.1^10,^14.0^2,^7.0^15,^20]tetratriaconta-2,4,6(34),8,10(33), 11, 13, 15 (20),16,18-decaen-3-yl]acetic acid]",EC50,[3]; [4],36 nM
"Cc1ccc2c(c1)-c1cccc(c1)-c1cc3nc(C)c([C@H](OC4(C)CCC4)C(=O)O)c(n3n1)N1CCC(C)(CC1)OCCCC[C@H](C)O2 [Example 97, (2S)-2-(1-Methylcyclobutoxy)-2-[(22S)-4,17,22,28-tetramethyl-21,27-dioxa-1,5,7,8-tetraazahexacyclo[26.2.2.1^6,^9.1^10,^14.0^2,^7.0^15,^20]tetratriaconta-2,4, 6(34), 8, 10(33), 11, 13, 15 (20),16,18-decaen-3-yl]acetic acid]",EC50,[3]; [4],41 nM
Cc1nc2cc3nn2c(c1[C@H](OC(C)(C)C)C(=O)O)N1CCC(C)(CC1)OCCCC[C@H](C)Oc1cccc(F)c1-c1cc-3ccc1F [Example 99],EC50,[3]; [4],20 nM
"Cc1ccc2c(c1)O[C@@H](C)CC=CCOC1(C)CCN(CC1)c1c([C@H](OC(C)(C)C)C(=O)O)c(C)nc3cc(nn13)-c1cccc-2c1 [Example 105, (2S)-2-(tert-Butoxy)-2-[(22S)-4,18,22,28-tetramethyl-21,27-dioxa-1,5,7,8-tetraazahexacyclo[26.2.2.1^6,^9.1^10,^14.0^2,^7.0^15,^20]tetratriaconta-2,4,6(34),8,10(33), 11, 13, 15(20),16,18,24-undecaen-3-yl]acetic acid]",EC50,[3]; [4],28 nM
Cc1nc2cc3nn2c(c1[C@H](OC(C)(C)C)C(=O)O)N1CCC(C)(CC1)COCCCCCc1ccccc1-c1cccc-3c1 [Example 106],EC50,[3]; [4],89 nM
"(2S)-2-(tert-Butoxy)-2-[(22S)-4,17,22,29-tetramethyl-21,28-dioxa-1,5,7,8-tetraazahexacyclo[27.2.2.1^6,^9.1^10,^14.0^2,^7.0^15,^20]pentatriaconta-2,4, 6(35), 8, 10(34), 11, 13, 15 (20),16,18-decaen-3-yl]acetic acid [Example 65]",EC50,[3]; read-out: EC50,43 nM
"Methyl (2S)-2-(tert-butoxy)-2-[(23E)-4,27-dimethyl-21,26-dioxa-1,5,7,8-tetraazahexacyclo[25.2.2.1^6,^9.1^10,^14.0^2,^7.0^15,^20]tritriaconta-2,4,6(33),8,10(32),11,13,15(20),16,18,23-undecaen-3-yl]acetate","ring closure, isolated yield","[1]; 19-membered ring, Hoveyda-Grubbs II, 1.3 mM",100%
"Methyl (2S)-2-(tert-butoxy)-2-[(24E/Z)-4,17,23,28-tetramethyl-21,27-dioxa-1,5,7,8-tetraazahexacyclo[26.2.2.1^6,^9.1^10,^14.0^2,^7.0^15,^20]tetratriaconta-2,4,6(34),8,10(33), 11,13,15 (20),16,18,24-undecaen-3-yl]acetate","ring closure, isolated yield","[1]; 20-membered ring, Hoveyda-Grubbs II (7 mol%), 4.0 mM, 85.0 °C",70.6%
